Article PMC7501296, “Rapid and direct control of target protein levels with VHL-recruiting dTAG molecules” (Nature Communications, 2020)
“And” between values parts separate entries of the source, which are not always exact repeats. Equal values may be shown once.

Legend:
Format in all cases: cell-based
[1] = system: PATU-8902 FKBP12^F36V-KRAS^G12V; KRAS^-/- clone; test: Antiproliferation, PATU-8902 FKBP12F36V-KRASG12V; KRAS-/- clone, 2D-monolayer (CellTiter-Glo)
[2] = system: PATU-8902 LACZ-FKBP12^F36V clone; test: Antiproliferation, PATU-8902 LACZ-FKBP12F36V clone, 2D-monolayer (CellTiter-Glo)
Procedure, shortened: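 Viability of cells grown as 2D-adherent monolayers was determined with the CellTiter-Glo luminescent reagent (Promega). Luminescence signals were read on either an Envision 2104 plate reader (PerkinElmer) or a Fluostar Omega Reader (BMG Labtech), and the resulting data were processed and analyzed in GraphPad PRISM v8 software.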

FKBP12^F36V-EWS/FLI = test: Immunoblot of EWS502 FKBP12F36V-EWS/FLI; EWS/FLI-/- cells
Protocol: To generate 293T^WT FKBP12^F36V-KRAS^G12V and 293T^VHL−/− FKBP12^F36V-KRAS^G12V cells, concentrated lentiviral supernatants[6] were applied to 293T^WT and 293T^VHL−/− cells[33] in the presence of 4 µg mL^−1 polybrene and transduced cell lines were selected with 2 µg mL^−1 puromycin. To generate EWS502 FKBP12^F36V-GFP cells, EWS502 cells were transduced with pLEX_305-dTAG-GFP lentiviral supernatant and selected with 1 µg mL^−1 puromycin. To generate EWS502 FKBP12^F36V-EWS/FLI; EWS/FLI^−/− cells, EWS502 cells were co-transduced with pLEX_305-dTAG-EWS/FLI and lentiCRISPR v2-Blast-sgFLI_Ex9 lentiviral supernatants. Cells were then selected with both 1 µg mL^−1 puromycin (pLEX_305-dTAG-EWS/FLI) and 5 µg mL^−1 blasticidin (lentiCRISPR v2-Blast-sgFLI_Ex9). Knockout of endogenous EWS/FLI and the expression of exogenous FKBP12^F36V-EWS/FLI were confirmed by immunoblot and pooled transduced cell populations were employed for this study. PATU-8902 LACZ-FKBP12^F36V and FKBP12^F36V-KRAS^G12V; KRAS^−/− clones were also employed in this study.
PATU-8902 LACZ-FKBP12^F36V and FKBP12^F36V-KRAS^G12V; KRAS^−/− cells and 293T cells were lysed with RIPA buffer supplemented with cOmplete protease inhibitors (Roche), PhosSTOP phosphatase inhibitors (Roche), and 0.1% benzonase (Novagen). Proteins were separated using NuPAGE Bolt^TM Bis–Tris gels (Thermo Fisher Scientific) and transferred to nitrocellulose membranes, which were blocked with Odyssey Blocking Buffer (LI-COR) and incubated with primary antibodies overnight. Membranes were washed three times with TBS-T, incubated with the appropriate fluorescently labeled infrared secondary antibodies, washed again three times with TBS-T, and assessed using an Odyssey CLx Imager (LI-COR)[6],[15]. EWS502 cells were lysed with Cell Lysis Buffer (Cell Signaling Technology) supplemented with cOmplete protease inhibitors (Roche). Proteins were separated using SDS-PAGE gels and transferred to PVDF membranes, which were blocked with 5% milk in TBS-T and incubated with primary antibodies overnight. Membranes were washed five times with TBS-T, incubated with the appropriate horseradish peroxidase-conjugated secondary antibodies, washed again five times with TBS-T, and imaged. […]

[3] = system: EWS502 FKBP12^F36V-EWS/FLI; EWS/FLI^−/− cells; test: Relative growth of EWS502 FKBP12F36V-EWS/FLI; EWS/FLI-/- cells (CellTiter-Glo); conditions: for Antiproliferation (relative growth): replicate values
Protocol: Cell viability was assayed in 2D-adherent or ultra-low adherent 3D-spheroids using CellTiter-Glo (Promega)[6],[15]. Luminescence was measured on an Envision 2104 plate reader (PerkinElmer) and Fluostar Omega Reader (BMG Labtech) and data was analyzed using GraphPad PRISM v8. Synergy assessments were performed using CellTiter-Glo (Promega) with the following modifications to the protocol described in the ref. [34]. In brief, EWS502 cells were plated at 1000 cells per well in 50 µL of appropriate media in 384-well white culture plates (Corning) allowed to adhere overnight, and 100 nL of compounds were added using a Janus Workstation pin tool (PerkinElmer) for 72 h. Cell viability was measured by addition of 10 µL of CellTiter-glo (Promega), followed by incubation for 15 minutes at room temperature. Luminescence was measured on an Envision 2104 plate reader (PerkinElmer) and data was analyzed using GraphPad PRISM v8.

FKBP12^F36V-KRAS^G12V = target: T1, FKBP12^F36V-KRAS^G12V (Homo sapiens, UniProt P01116+P62942, F37V/G12V); test: Immunoblot of PATU-8902 FKBP12F36V-KRASG12V; KRAS-/- clone; conditions: pretreated 2 h prior to dTAGV-1 for 4 h
T1 construct: KRAS G12V (fusion partner, same polypeptide); expressed in transfected cells
Protocol: (§1) PATU-8902 LACZ-FKBP12^F36V and FKBP12^F36V-KRAS^G12V; KRAS^−/− cells and 293T cells were lysed with RIPA buffer supplemented with cOmplete protease inhibitors (Roche), PhosSTOP phosphatase inhibitors (Roche), and 0.1% benzonase (Novagen). Proteins were separated using NuPAGE Bolt^TM Bis–Tris gels (Thermo Fisher Scientific) and transferred to nitrocellulose membranes, which were blocked with Odyssey Blocking Buffer (LI-COR) and incubated with primary antibodies overnight. Membranes were washed three times with TBS-T, incubated with the appropriate fluorescently labeled infrared secondary antibodies, washed again three times with TBS-T, and assessed using an Odyssey CLx Imager (LI-COR)[6],[15]. EWS502 cells were lysed with Cell Lysis Buffer (Cell Signaling Technology) supplemented with cOmplete protease inhibitors (Roche). Proteins were separated using SDS-PAGE gels and transferred to PVDF membranes, which were blocked with 5% milk in TBS-T and incubated with primary antibodies overnight. Membranes were washed five times with TBS-T, incubated with the appropriate horseradish peroxidase-conjugated secondary antibodies, washed again five times with TBS-T, and imaged. The following primary antibodies were employed in this study: HA (Cell Signaling Technology #3724 and #2367, dilution at 1:1000), phospho-ERK1/2 T202/Y204 (Cell Signaling Technology #4370, dilution at 1:1000), ERK1/2 (Cell Signaling Technology #4696, dilution at 1:1000), phospho-AKT S473 (Cell Signaling Technology #4060, dilution at 1:1000), AKT (Cell Signaling Technology #2920, dilution at 1:1000), FKBP12 (Abcam #ab24373, dilution at 1:1000), GFP (Cell Signaling Technology #2555, dilution at 1:1000), FLI (Abcam #ab15289, dilution at 1:2000), NKX2-2 (Abcam #ab187375, dilution at 1:1000), GAPDH (Cell Signaling Technology #2118, dilution at 1:3000), Vinculin (Cell Signaling Technology #13901, dilution at 1:3000), β-Actin (Cell Signaling Technology #58169, dilution at 1:3000), and α-Tubulin (Cell Signaling Technology #3873, dilution at 1:5000). Species-specific fluorescently labeled infrared secondary antibodies including IRDye 680LT anti-Mouse IgG (LI-COR #926-68020, dilution at 1:5000), IRDye 800CW anti-Mouse IgG (LI-COR #926-32210, dilution at 1:5000), IRDye 680LT anti-Rabbit IgG (LI-COR #926-68021, dilution at 1:5000), and IRDye 800CW anti-Rabbit IgG (LI-COR #926-32211, dilution at 1:5000) and peroxidase-linked secondary antibodies including anti-Mouse IgG (Thermo Fisher Scientific #45000680, dilution at 1:5000) and anti-Rabbit IgG (Thermo Fisher Scientific #45000682, dilution at 1:5000) were employed as appropriate.

CDK9 = target: T2, CDK9 (Homo sapiens, UniProt P50750); test: Immunoblot, co-treatment with THAL-SNS-032 and/or dTAGV-1 in PATU-8902 LACZ-FKBP12F36V clone; conditions: co-treatment dTAGV-1 + THAL-SNS-032, 24 h
T2 construct: endogenous in cells; host or cells: PATU-8902 LACZ-FKBP12^F36V clone
Protocol: as §1, with “Species-specific fluorescently labeled infrared secondary antibodies including IRDye 680LT anti-Mouse IgG (LI-COR #926-68020, dilution at 1:5000), IRDye 800CW anti-Mouse IgG (LI-COR #926-32210, dilution at 1:5000), IRDye 680LT anti-Rabbit IgG (LI-COR #926-68021, dilution at 1:5000), and IRDye 800CW anti-Rabbit IgG (LI-COR #926-32211, dilution at 1:5000) and peroxidase-linked secondary antibodies including anti-Mouse IgG (Thermo Fisher Scientific #45000680, dilution at 1:5000) and anti-Rabbit IgG (Thermo Fisher Scientific #45000682, dilution at 1:5000) were employed as appropriate.” left out

T1 sequence (P62942+P01116 fused P62942:F37V/P01116:G12V): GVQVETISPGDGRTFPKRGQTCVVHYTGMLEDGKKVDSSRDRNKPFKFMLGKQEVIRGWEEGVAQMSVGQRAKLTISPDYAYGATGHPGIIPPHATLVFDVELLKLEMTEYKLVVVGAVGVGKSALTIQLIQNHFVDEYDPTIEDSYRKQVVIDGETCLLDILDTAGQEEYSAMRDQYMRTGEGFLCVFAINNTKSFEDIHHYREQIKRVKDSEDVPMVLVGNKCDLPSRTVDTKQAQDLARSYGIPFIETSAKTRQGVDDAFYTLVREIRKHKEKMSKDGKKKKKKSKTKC

## CC[C@H](C(=O)N1CCCC[C@H]1C(=O)O[C@H](CCc1ccc(OC)c(OC)c1)c1ccccc1OCC(=O)NCCOCCOCCOCC(=O)N[C@H](C(=O)N1C[C@H](O)C[C@H]1C(=O)N[C@@H](C)c1ccc(-c2scnc2C)cc1)C(C)(C)C)c1cc(OC)c(OC)c(OC)c1 [dTAG-63]
[1]; log10[compound] (M) -4.69897
  DMSO-normalized antiproliferation: 1.902 and 1.7836 and 2.592 and 1.417
[1]; log10[compound] (M) -5.19897
  DMSO-normalized antiproliferation: 1.019 and 0.7215 and 1.043 and 0.8704
[1]; log10[compound] (M) -5.69897
  DMSO-normalized antiproliferation: 18.9261 and 16.9894 and 19.5961 and 18.1242
[1]; log10[compound] (M) -6.19897
  DMSO-normalized antiproliferation: 26.0652 and 23.4484 and 26.4223 and 22.5834
[1]; log10[compound] (M) -6.69897
  DMSO-normalized antiproliferation: 29.8671 and 30.9365 and 33.7587 and 28.015
[1]; log10[compound] (M) -7.19897
  DMSO-normalized antiproliferation: 63.0328 and 57.9113 and 61.3608 and 60.3114
[1]; log10[compound] (M) -7.69897
  DMSO-normalized antiproliferation: 91.5315 and 97.3637 and 98.717 and 90.5671
[1]; log10[compound] (M) -8.19897
  DMSO-normalized antiproliferation: 103.715 and 106.791 and 102.663 and 104
[1]; log10[compound] (M) -8.69897
  DMSO-normalized antiproliferation: 99.9165 and 93.5571 and 104.512 and 109.434
[1]; log10[compound] (M) -9.19897
  DMSO-normalized antiproliferation: 108.333 and 105.196 and 111.04 and 104.691
[2]; log10[compound] (M) -4.69897
  DMSO-normalized antiproliferation: 13.2737 and 12.6329 and 14.1104 and 10.912
[2]; log10[compound] (M) -5.19897
  DMSO-normalized antiproliferation: 7.875 and 6.856 and 8.909 and 8.0101
[2]; log10[compound] (M) -5.69897
  DMSO-normalized antiproliferation: 78.4433 and 69.3624 and 75.8082 and 79.7492
[2]; log10[compound] (M) -6.19897
  DMSO-normalized antiproliferation: 113.01 and 109.862 and 96.0186 and 107.676
[2]; log10[compound] (M) -6.69897
  DMSO-normalized antiproliferation: 108.532 and 100.339 and 100.126 and 107.64
[2]; log10[compound] (M) -7.19897
  DMSO-normalized antiproliferation: 112.463 and 103.538 and 107.565 and 99.0951
[2]; log10[compound] (M) -7.69897
  DMSO-normalized antiproliferation: 105.646 and 110.739 and 108.339 and 103.433
[2]; log10[compound] (M) -8.19897
  DMSO-normalized antiproliferation: 104.397 and 99.4398 and 102.394 and 104.585
[2]; log10[compound] (M) -8.69897
  DMSO-normalized antiproliferation: 100.586 and 98.6181 and 103.288 and 91.8912
[2]; log10[compound] (M) -9.19897
  DMSO-normalized antiproliferation: 97.4681 and 95.2333 and 95.4033 and 78.5397
FKBP12^F36V-EWS/FLI; EWS502 FKBP12F36V-EWS/FLI, EWS/FLI-/- cells
  FKBP12F36V-EWS/FLI degradation, immunoblot: marginal degradation
FKBP12^F36V-EWS/FLI; relative to dTAGV-1
  NKX2-2 protein levels, immunoblot: limited changes
[3]; Time 0 days
  Antiproliferation (relative growth): 1.033 and 1 and 1.041 and 1.01 and 1.018 and 1.028 and 1.023 and 0.847
[3]; Time 3 days
  Antiproliferation (relative growth): 5.323 and 5.646 and 6.274 and 5.9 and 5.4745 and 5.572 and 6.329 and 5.374
[3]; Time 5 days
  Antiproliferation (relative growth): 8.718 and 8.673 and 8.208 and 9.16 and 8.872 and 9.224 and 8.694 and 9.906
[3]; Time 7 days
  Antiproliferation (relative growth): 8.087 and 8.192 and 8.728 and 8.891 and 8.43 and 7.949 and 9.536 and 9.221
[3]; longer time-points
  Antiproliferative effects upon EWS/FLI degradation: modest antiproliferative effects

## NS(=O)(=O)OC[C@@H]1C[C@@H](n2ccc3c(N[C@H]4CCc5ccccc54)ncnc32)C[C@@H]1O [MLN4924]
FKBP12^F36V-KRAS^G12V
  Effect of pre-treatment on dTAGV-1-induced KRASG12V degradation: rescued

## CC(C)(C)c1cnc(CSc2cnc(NC(=O)C3CCN(CC(=O)NCCOCCOCCOCCNc4cccc5c4C(=O)N(C4CCC(=O)NC4=O)C5=O)CC3)s2)o1 (stereo not drawn) [THAL-SNS-032]
CDK9
  Degradation of both LACZ-FKBP12F36V and CDK9 on co-treatment: pronounced degradation

## CC(C)C[C@H](NC(=O)[C@H](CCc1ccccc1)NC(=O)CN1CCOCC1)C(=O)N[C@@H](Cc1ccccc1)C(=O)N[C@@H](CC(C)C)C(=O)[C@@]1(C)CO1 [carfilzomib]
FKBP12^F36V-KRAS^G12V
  Effect of pre-treatment on dTAGV-1-induced KRASG12V degradation: rescued
